Among the data in US20110288084A1, “[4-( 1-AMINO-ETHYL) - CYCLOHEXYL ] - METHYL - AMINES AS ANTIBACTERIALS” (ASTRAZENECA AB, priority 2008, published 2011) are IC50 values, retold here.

Broadly, the pIC50 is the IC50 on a negative log10 scale, so that one unit is a factor of ten. Higher therefore signals a small IC50.

pIC50: −log10 of the molar value.

The target of this test is Escherichia coli ParC/ParE tetramer protein (Escherichia coli, UniProt P0AFI2+P20083). The test is described as follows: E. coli ParC/ParE ATPase inhibition assay (malachite green phosphate detection). The following applies: ATPase activity of ParE subunit of reconstituted ParC/ParE tetramer; 0.16 mM ATP; 24 hours at room temperature. In kind it is biochemical. The source says:
The compounds of Formula (I) are of interest due to their antibacterial effects. The ability of the invention compounds disclosed herein to achieve an antibacterial effect may be evaluated with regard to their ability to inhibit the ParC enzyme of Escherichia coli using an assay based on the following protocol.
The assay utilizes the ATPase activity of the ParE subunit of reconstituted Escherichia coli ParC/ParE tetramer protein. Inhibition of ATPase activity may be monitored by reduced production of inorganic phosphate, a product of the ATPase reaction. Inorganic phosphate may be quantified using the ammonium molybdate/malachite green-based detection system. For determination of IC50 values, assays may be performed 384-well microtiter plates. Each well preferably contains a dilution range of the compound dissolved in DMSO. In addition, each well preferably contains: 20 mM Tris pH 8.0, 50 mM ammonium acetate, 0.16 mM ATP, 0.005% Brij-35, 8.0 mM magnesium chloride, 0.5 mM EDTA, 2.5% v/v glycerol, 5 mM dithiothreitol, 0.005 mg/mL sheared salmon sperm DNA, 0.5 nM E. coli ParC protein, 0.5 nM E. coli ParE protein. Final volume of assays is preferably 30 μL. Reactions may be incubated 24 hours at room temperature and then quenched with the addition of 45 μL malachite green reagent (Lanzetta, P. A., L. J. Alvarez, P. S. Reinach, and O. A. Candia (1979) Anal. Biochem. 100: 95-97) via a bulk reagent dispenser. Plates may be incubated 3-5 minutes at room temperature, and then absorbance at 650 nm may be measured using a Spectramax 384 plate reader.
When tested in an assay based on the one described above, the inhibitory activity of the following Examples was measured at the indicated IC50.

Escherichia coli ParC/ParE tetramer protein, sequence (P20083 whole entry): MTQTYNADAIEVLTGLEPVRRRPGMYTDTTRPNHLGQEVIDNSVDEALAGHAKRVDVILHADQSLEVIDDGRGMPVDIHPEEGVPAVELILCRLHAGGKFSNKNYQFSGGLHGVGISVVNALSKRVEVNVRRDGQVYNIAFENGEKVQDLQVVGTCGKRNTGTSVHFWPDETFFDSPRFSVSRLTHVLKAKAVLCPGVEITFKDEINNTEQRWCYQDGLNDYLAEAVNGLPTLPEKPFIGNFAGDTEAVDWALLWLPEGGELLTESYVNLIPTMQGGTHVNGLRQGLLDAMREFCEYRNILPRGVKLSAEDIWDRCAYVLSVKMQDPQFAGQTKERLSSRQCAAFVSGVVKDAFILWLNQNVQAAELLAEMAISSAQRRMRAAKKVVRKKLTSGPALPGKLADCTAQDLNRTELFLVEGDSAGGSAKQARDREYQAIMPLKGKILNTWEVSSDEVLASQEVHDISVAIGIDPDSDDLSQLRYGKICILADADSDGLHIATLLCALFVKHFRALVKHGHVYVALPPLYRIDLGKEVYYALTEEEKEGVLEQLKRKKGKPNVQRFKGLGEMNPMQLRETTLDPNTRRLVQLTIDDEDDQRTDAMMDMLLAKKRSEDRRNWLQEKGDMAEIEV
Escherichia coli ParC/ParE tetramer protein, sequence (P0AFI2 whole entry): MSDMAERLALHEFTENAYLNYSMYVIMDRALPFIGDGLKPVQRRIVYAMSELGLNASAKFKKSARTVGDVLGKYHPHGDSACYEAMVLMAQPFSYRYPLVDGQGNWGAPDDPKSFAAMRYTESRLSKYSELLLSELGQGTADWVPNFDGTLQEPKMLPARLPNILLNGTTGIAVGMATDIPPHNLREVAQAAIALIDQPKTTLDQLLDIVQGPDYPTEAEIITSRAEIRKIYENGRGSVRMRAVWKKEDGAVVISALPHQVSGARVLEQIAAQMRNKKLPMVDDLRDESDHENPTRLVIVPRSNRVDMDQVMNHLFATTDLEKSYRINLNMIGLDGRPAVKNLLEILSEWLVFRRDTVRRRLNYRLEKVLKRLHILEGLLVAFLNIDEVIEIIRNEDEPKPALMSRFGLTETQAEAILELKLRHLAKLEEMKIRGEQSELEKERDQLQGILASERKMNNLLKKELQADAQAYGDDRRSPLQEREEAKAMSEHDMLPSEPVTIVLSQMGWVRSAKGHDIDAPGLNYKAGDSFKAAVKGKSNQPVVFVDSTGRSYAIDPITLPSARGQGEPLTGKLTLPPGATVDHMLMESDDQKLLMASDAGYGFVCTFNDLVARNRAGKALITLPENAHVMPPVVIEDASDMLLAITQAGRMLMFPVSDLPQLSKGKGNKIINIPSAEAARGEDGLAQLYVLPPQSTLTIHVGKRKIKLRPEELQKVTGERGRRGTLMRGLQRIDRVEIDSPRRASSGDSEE

`COc1cnc2ccc(=O)n(CC(N)C3CCC(NCc4ccc5c(n4)NC(=O)CO5)CC3)c2c1` (racemic) [Example 1, Trans-6-((4-(1-amino-2-(7-methoxy-2-oxo-1,5-naphthyridin-1(2H)-yl)ethyl)cyclohexylamino)methyl)-2H-pyrido[3,2-b][1,4]oxazin-3(4H)-one] gave a negative logarithm of the IC50 (pIC50) of 7.70.
As for `N#Cc1ccc2ccc(=O)n(CC(N)C3CCC(NCc4ccc5c(n4)NC(=O)CO5)CC3)c2c1` (racemic) [Example 4, Trans-1-(2-amino-2-(4-((3-oxo-3,4-dihydro-2H-pyrido[3,2-b][1,4]oxazin-6-yl)methylamino)cyclohexyl)ethyl)-2-oxo-1,2-dihydroquinoline-7-carbonitrile], the figure is 8.05.
As for `N#Cc1ccc2ccc(=O)n(CC(N)C3CCC(NCc4ccc5c(n4)NC(=O)CS5)CC3)c2c1` (racemic) [Example 7, Trans-1-(2-amino-2-(4-((3-oxo-3,4-dihydro-2H-pyrido[3,2-b][1,4]thiazin-6-yl)methylamino)cyclohexyl)ethyl)-2-oxo-1,2-dihydroquinoline-7-carbonitrile], the figure is 7.92; as for `COc1cnc2ccc(=O)n(CC(N)C3CCC(NCc4ncc5c(n4)NC(=O)CO5)CC3)c2c1` (racemic) [Example 8, Trans-2-((4-(1-amino-2-(7-methoxy-2-oxo-1,5-naphthyridin-1(2H)-yl)ethyl)cyclohexylamino)methyl)-6H-pyrimido[5,4-b][1,4]oxazin-7(8H)-one], 7.77.
As for `NC(Cn1c(=O)cnc2ccc(F)cc21)[C@H]1CC[C@H](NCc2ccc3c(n2)NC(=O)CO3)CC1` (single isomer, unassigned) [Example 5, Trans-6-((4-(1-amino-2-(7-fluoro-2-oxoquinoxalin-1(2H)-yl)ethyl)cyclohexylamino)methyl-2H-pyrido[3,2-b][1,4]oxazin-3(4H)-one, (+) enantiomer], the figure is 7.62.
The molecule `NC(Cn1c(=O)cnc2ccc(F)cc21)C1CCC(NCc2ncc3c(n2)NC(=O)CO3)CC1` (single isomer, unassigned) [Example 6, Trans-2-((4-(1-amino-2-(7-fluoro-2-oxoquinoxalin-1(2H)-yl)ethyl)cyclohexylamino)methyl-6H-pyrimido[5,4-b][1,4]oxazin-7(8H)-one, (+) enantiomer] showed a pIC50 of 7.82.
As for `COc1cnc2ccc(=O)n(CC(N)[C@H]3CC[C@H](NCc4ccc5c(n4)NC(=O)CO5)CC3)c2c1` (single isomer, unassigned; enantiomer a) [Example 1(a), Trans-6-((4-(1-amino-2-(7-methoxy-2-oxo-1,5-naphthyridin-1(2H)-yl)ethyl)cyclohexylamino)methyl)-2H-pyrido[3,2-b][1,4]oxazin-3(4H)-one, enantiomer A], the figure is 8.70.
Turning to `COc1ccc2ncc(=O)n(CC(N)[C@H]3CC[C@H](NCc4ccc5c(n4)NC(=O)CO5)CC3)c2c1` (single isomer, unassigned; enantiomer a) [Example 2(a), Trans-6-((4-(1-amino-2-(7-methoxy-2-oxoquinoxalin-1(2H)-yl)ethyl)cyclohexylamino)methyl)-2H-pyrido[3,2-b][1,4]oxazin-3(4H)-one, enantiomer A], the pIC50 is 7.80. Compared with the last molecule, the pIC50 is 0.90 log units lower.
As for `COc1ccc2ncc(=O)n(CC(N)[C@H]3CC[C@H](NCc4ncc5c(n4)NC(=O)CO5)CC3)c2c1` (single isomer, unassigned; enantiomer a) [Example 3(a), Trans-2-((4-(1-amino-2-(7-methoxy-2-oxoquinoxalin-1(2H)-yl)ethyl)cyclohexylamino)methyl)-6H-pyrimido[5,4-b][1,4]oxazin-7(8H)-one, enantiomer A], the figure is 7.80; as for `N#Cc1ccc2ccc(=O)n(CC(N)[C@H]3CC[C@H](NCc4ccc5c(n4)NC(=O)CO5)CC3)c2c1` (single isomer, unassigned; enantiomer a) [Example 4(a), Trans-1-(2-amino-2-(4-((3-oxo-3,4-dihydro-2H-pyrido[3,2-b][1,4]oxazin-6-yl)methylamino)cyclohexyl)ethyl)-2-oxo-1,2-dihydroquinoline-7-carbonitrile, enantiomer A], 7.49.
`NC(Cn1c(=O)ccc2ncc(Sc3ccccc3)cc21)C1CCC(NCc2ccc3c(n2)NC(=O)CO3)CC1` (single isomer, unassigned; enantiomer a) [Example 9, Trans-6-((4-(1-amino-2-(2-oxo-7-(phenylthio)-1,5-naphthyridin-1(2H)-yl)ethyl)cyclohexylamino)methyl)-2H-pyrido[3,2-b][1,4]oxazin-3(4H)-one, enantiomer A] showed a pIC50 of 8.22.
On to `Cc1cc(=O)n(CC(N)C2CCC(NCc3ccc4c(n3)NC(=O)CO4)CC2)c2cc(F)ccc12` (single isomer, unassigned; enantiomer a) [Example 10, Trans-6-((4-(1-amino-2-(7-fluoro-4-methyl-2-oxoquinolin-1(2H)-yl)ethyl)cyclohexylamino)methyl)-2H-pyrido[3,2-b][1,4]oxazin-3(4H)-one, enantiomer A], for which the pIC50 is 8.05.
`COc1cnc2ccc(=O)n(CC(N)[C@H]3CC[C@H](NCc4ccc5c(n4)NC(=O)CO5)CC3)c2c1` (single isomer, unassigned; enantiomer b) [Example 1(b), Trans-6-((4-(1-amino-2-(7-methoxy-2-oxo-1,5-naphthyridin-1(2H)-yl)ethyl)cyclohexylamino)methyl)-2H-pyrido[3,2-b][1,4]oxazin-3(4H)-one, enantiomer B] gave a pIC50 of 7.48. This pIC50 is 0.57 log units lower than that of the molecule before.
The figure for `COc1ccc2ncc(=O)n(CC(N)[C@H]3CC[C@H](NCc4ccc5c(n4)NC(=O)CO5)CC3)c2c1` (single isomer, unassigned; enantiomer b) [Example 2(b), Trans-6-((4-(1-amino-2-(7-methoxy-2-oxoquinoxalin-1(2H)-yl)ethyl)cyclohexylamino)methyl)-2H-pyrido[3,2-b][1,4]oxazin-3(4H)-one, enantiomer B] is 8.40.
On to `COc1ccc2ncc(=O)n(CC(N)[C@H]3CC[C@H](NCc4ncc5c(n4)NC(=O)CO5)CC3)c2c1` (single isomer, unassigned; enantiomer b) [Example 3(b), Trans-2-((4-(1-amino-2-(7-methoxy-2-oxoquinoxalin-1(2H)-yl)ethyl)cyclohexylamino)methyl)-6H-pyrimido[5,4-b][1,4]oxazin-7(8H)-one, enantiomer B], for which the pIC50 was 8.52.
The figure for `N#Cc1ccc2ccc(=O)n(CC(N)[C@H]3CC[C@H](NCc4ccc5c(n4)NC(=O)CO5)CC3)c2c1` (single isomer, unassigned; enantiomer b) [Example 4(b), Trans-1-(2-amino-2-(4-((3-oxo-3,4-dihydro-2H-pyrido[3,2-b][1,4]oxazin-6-yl)methylamino)cyclohexyl)ethyl)-2-oxo-1,2-dihydroquinoline-7-carbonitrile, enantiomer B] is 8.40; for `N#Cc1ccc2ccc(=O)n(CC(N)[C@H]3CC[C@H](NCc4ccc5c(n4)NC(=O)CS5)CC3)c2c1` (single isomer, unassigned; enantiomer b) [Example 7(b), Trans-1-(2-amino-2-(4-((3-oxo-3,4-dihydro-2H-pyrido[3,2-b][1,4]thiazin-6-yl)methylamino)cyclohexyl)ethyl)-2-oxo-1,2-dihydroquinoline-7-carbonitrile, enantiomer B] it is 8.70.
